Literature values as cited in patent US20070093743A1, “Iontophoresis Drug Delivery Device Providing Acceptable Depth and Duration of Dermal Anesthesia” (Vyteris, Inc., priority 2005, published 2007).

Conditions: iontophoresis in vitro across human skin

SMILES	cumulative delivery compared with lidocaine
CCN(CC)CCOC(=O)c1ccc(N)cc1 [procaine]	slightly greater delivery
CCCN(CC)C(CC)C(=O)Nc1c(C)cccc1C (stereo not drawn) [etidocaine]	slightly greater delivery
CCCNC(C)C(=O)Nc1ccccc1C (stereo not drawn) [prilocaine]	slightly greater delivery
